Drawing on patent US20260274892A1, “MACROCYCLIC BROAD SPECTRUM ANTIBIOTICS” (RQx Pharmaceuticals, Inc., priority 2017, published 2026), this text covers MIC for 5 molecules.

This assay concerns Escherichia coli ATCC 25922. As to the kind of experiment: Minimum inhibitory concentration (MIC), CLSI broth micro-dilution, E. coli. Format: cell-based. The note with it: Escherichia coli, ATCC25922, Table 6, cation adjusted Mueller Hinton Broth + 0.002% Tween-80, 35° C., 22 hours. The method, then: In vitro antimicrobial activity of each compound was determined by measuring minimal inhibitor concentrations (MICs) using the broth micro-dilution technique as approved by the Clinical and Laboratory Standards Institute (CLSI) (Methods for Dilution Antimicrobial Susceptibility Tests for Bacteria that Grow Aerobically; Approved Standard-Eighth Edition. CLSI document M07-A8. Wayne, PA: Clinical and Laboratroy Standards; 2009). Antibacterial activity was measure against two strains of bacteria: a Methicillin Resistant Staphylococcus aureus strain USA 200, (S. aureus) and Escherichia coli ATCC 25922 (E. coli), a clinically relevant Gram-negative strain. Cells were inoculated onto plates of Trypyticase Soy Agar or Luria Agar respectively and grown at 35° C. for 20 hours. Inocula suspensions were prepared by scraping cells into 1 mL of testing media (cation adjusted Mueller Hinton Broth supplemented with 0.002% v/v Tween-80) and diluting to a final OD600nm of 0.01.
Test compounds were prepared in DMSO at a concentration of 10 mg/mL. In protocol 1, the compound stocks were diluted into testing media at a concentration of 64 µg/ml and serial 2-fold dilutions were made in the same media, in 96-well U bottom microtiter dishes, for a total of 10 compound concentrations. In protocol 2, the compound stocks were diluted into testing media at a concentration of 4 µg/mL and serial 2-fold dilutions were made in the same media, in 96-well U bottom microtiter dishes, for a total of 10 compound concentrations. In protocol 3, compound stocks were diluted into testing media at a concentration of 0.5 μg/mL, with serial 2-fold dilutions conducted as described above. In protocol 4, compound stocks were diluted into testing media at a concentration of […], with serial 2-fold dilutions conducted as described above. Inocula suspensions were added to the 2-fold serial dilutions of test compounds to a final density of GD OD600nm of 0.0005 and incubated at 35° C. for 22 hours.

The MIC is the smallest concentration in the dilution series that meets the test's criterion for growth inhibition. Regarding `Cc1cc(C(C)(C)C)ccc1-c1ccc(C(=O)N[C@@H](CCN)C(=O)N(C)[C@@H]2C(=O)N[C@@H](C)C(=O)N[C@H](C(=O)NCC#N)Cc3ccc(OCCN)c(c3)-c3cc2ccc3OCCN)c(C)n1` (racemic) [Compound 210, rac-(8S,11S,14S)-3,18-bis(2-aminoethoxy)-N-(cyanomethyl)-11-methyl-14-[methyl-[rac-(2S)-4-amino-2-[[6-(4-tert-butyl-2-methyl-phenyl)-2-methyl-pyridine-3-carbonyl]amino]butanoyl]amino]-10,13-dioxo-9,12-diazatricyclo[13.3.1.12,6]icosa-1(18),2(20),3,5,15(19),16-hexaene-8-carboxamide], the minimal inhibitory concentration (MIC) amounted to 0.35 µM.
The figure for `Cc1nc(-c2ccc(C3(C(F)(F)F)CC3)cc2)ccc1C(=O)N[C@@H](CCN)C(=O)N(C)[C@@H]1C(=O)N[C@@H](C)C(=O)N[C@H](C(=O)NCC#N)Cc2ccc(OCCN)c(c2)-c2cc1ccc2OCCN` (racemic) [Compound 211, rac-(8S,11S,14S)-3,18-bis(2-aminoethoxy)-N-(cyanomethyl)-11-methyl-14-[methyl-[rac-(2S)-4-amino-2-[[2-methyl-6-[4-[1-(trifluoromethyl)cyclopropyl]phenyl]pyridine-3-carbonyl]amino]butanoyl]amino]-10,13-dioxo-9,12-diazatricyclo[13.3.1.12,6]icosa-1(18),2(20),3,5,15(19),16-hexaene-8-carboxamide] is 0.17 µM.
`Cc1cc(-c2ccc(C(C)(C)C)cc2)ncc1C(=O)N[C@@H](CCN)C(=O)N(C)[C@@H]1C(=O)N[C@@H](C)C(=O)N[C@H](C(=O)NCC#N)Cc2ccc(OCCN)c(c2)-c2cc1ccc2OCCN` (racemic) [Compound 215, rac-(8S,11S,14S)-3,18-bis(2-aminoethoxy)-N-(cyanomethyl)-11-methyl-14-[methyl-[rac-(2S)-4-amino-2-[[6-(4-tert-butylphenyl)-4-methyl-pyridine-3-carbonyl]amino]butanoyl]amino]-10,13-dioxo-9,12-diazatricyclo[13.3.1.12,6]icosa-1(18),2(20),3,5,15(19),16-hexaene-8-carboxamide]: the MIC stood at 0.13 µM.
Next, `Cc1nc(-c2ccc(CC(C)(C)C)cc2)ncc1C(=O)N[C@@H](CCN)C(=O)N(C)[C@@H]1C(=O)N[C@@H](C)C(=O)N[C@H](C(=O)NCC#N)Cc2ccc(OCCN)c(c2)-c2cc1ccc2OCCN` (racemic) [Compound 226, rac-(8S,11S,14S)-3,18-bis(2-aminoethoxy)-N-(cyanomethyl)-11-methyl-14-[methyl-[rac-(2S)-4-amino-2-[[2-[4-(2,2-dimethylpropyl)phenyl]-4-methyl-pyrimidine-5-carbonyl]amino]butanoyl]amino]-10,13-dioxo-9,12-diazatricyclo[13.3.1.12,6]icosa-1(18),2(20),3,5,15(19),16-hexaene-8-carboxamide]: 0.099 µM.
The figure for `Cc1nc(C#CC(C)(C)C)ncc1C(=O)N[C@@H](CCN)C(=O)N(C)[C@@H]1C(=O)N[C@@H](C)C(=O)N[C@H](C(=O)NCC#N)Cc2ccc(OCCN)c(c2)-c2cc1ccc2OCCN` (racemic) [Compound 228, rac-(8S,11S,14S)-3,18-bis(2-aminoethoxy)-N-(cyanomethyl)-11-methyl-14-[methyl-[rac-(2S)-4-amino-2-[[2-(3,3-dimethylbut-1-ynyl)-4-methyl-pyrimidine-5-carbonyl]amino]butanoyl]amino]-10,13-dioxo-9,12-diazatricyclo[13.3.1.12,6]icosa-1(18),2(20),3,5,15(19),16-hexaene-8-carboxamide] is 2.3 µM.
